Results reported in doi:10.1101/2021.04.08.439011v1 (biorxiv, 2021).

Key:
[1] = biological target: RSK3(Kin.Dom.1-N-terminal) (Homo sapiens, UniProt Q15349); settings: 0.1 µM; binder
[2] = biological target: JAK3(JH1domain-catalytic) (Homo sapiens, UniProt P52333); settings: 0.1 µM; binder
[3] = biological target: ITK (Homo sapiens, UniProt Q08881); settings: 0.1 µM; binder
[4] = biological target: EPHA8 (Homo sapiens, UniProt P29322); settings: 0.1 µM; binder
[5] = biological target: MST3 (Homo sapiens, UniProt Q9Y6E0); settings: 0.1 µM; binder
[6] = biological target: MET (Homo sapiens, UniProt P08581); settings: 0.1 µM; binder
[7] = biological target: HUNK (Homo sapiens, UniProt P57058); settings: 0.1 µM; binder
[8] = biological target: TRKC (Homo sapiens, UniProt Q16288); settings: 0.1 µM; binder
[9] = biological target: CDKL5 (Homo sapiens, UniProt O76039); settings: 0.1 µM; binder
[10] = biological target: TAOK1 (Homo sapiens, UniProt Q7L7X3); settings: 0.1 µM; binder
[11] = biological target: EPHA6 (Homo sapiens, UniProt Q9UF33); settings: 0.1 µM; binder
[12] = biological target: LYN (Homo sapiens, UniProt P07948); settings: 0.1 µM; binder
[13] = biological target: HCK (Homo sapiens, UniProt P08631); settings: 0.1 µM; binder
[14] = biological target: MAP3K15 (Homo sapiens, UniProt Q6ZN16); settings: 0.1 µM; binder
[15] = biological target: MAST1 (Homo sapiens, UniProt Q9Y2H9); settings: 0.1 µM; binder
[16] = biological target: TAOK2 (Homo sapiens, UniProt Q9UL54); settings: 0.1 µM; binder
[17] = biological target: EPHA1 (Homo sapiens, UniProt P21709); settings: 0.1 µM; binder
[18] = biological target: MERTK (Homo sapiens, UniProt Q12866); settings: 0.1 µM; binder
[19] = biological target: VRK2 (Homo sapiens, UniProt Q86Y07); settings: 0.1 µM; binder
[20] = biological target: RPS6KA4(Kin.Dom.1-N-terminal) (Homo sapiens, UniProt O75676); settings: 0.1 µM; binder
[21] = biological target: PKNB (M. tuberculosis) (Mycobacterium tuberculosis, UniProt P9WI81); settings: 1 µM; binder
[22] = biological target: RSK4(Kin.Dom.2-C-terminal) (Homo sapiens, UniProt Q9UK32); settings: 0.1 µM; binder
[23] = biological target: STK33 (Homo sapiens, UniProt Q9BYT3); experiment: biochemical; settings: read-out: Percent Control
[24] = biological target: T1, LTK (Homo sapiens, UniProt P29376); experiment: biochemical; settings: read-out: Percent Control
[25] = biological target: T2, DYRK1B (Homo sapiens, UniProt Q9Y463); experiment: biochemical; settings: read-out: Percent Control
[26] = biological target: CDK4-cyclinD1 (Homo sapiens, UniProt P11802); settings: 0.1 µM; binder
[27] = biological target: T1, LTK; experiment: biochemical; settings: read-out: Percent Control; remark: listed apart in the source
[28] = biological target: T2, DYRK1B; experiment: biochemical; settings: read-out: Percent Control; remark: listed apart in the source
[29] = biological target: RSK2(Kin.Dom.1-N-terminal) (Homo sapiens, UniProt P51812); settings: 0.1 µM; binder
[30] = biological target: RSK2(Kin.Dom.2-C-terminal) (Homo sapiens, UniProt P51812); settings: 0.1 µM; binder

T2 sequence (Q9Y463 whole entry): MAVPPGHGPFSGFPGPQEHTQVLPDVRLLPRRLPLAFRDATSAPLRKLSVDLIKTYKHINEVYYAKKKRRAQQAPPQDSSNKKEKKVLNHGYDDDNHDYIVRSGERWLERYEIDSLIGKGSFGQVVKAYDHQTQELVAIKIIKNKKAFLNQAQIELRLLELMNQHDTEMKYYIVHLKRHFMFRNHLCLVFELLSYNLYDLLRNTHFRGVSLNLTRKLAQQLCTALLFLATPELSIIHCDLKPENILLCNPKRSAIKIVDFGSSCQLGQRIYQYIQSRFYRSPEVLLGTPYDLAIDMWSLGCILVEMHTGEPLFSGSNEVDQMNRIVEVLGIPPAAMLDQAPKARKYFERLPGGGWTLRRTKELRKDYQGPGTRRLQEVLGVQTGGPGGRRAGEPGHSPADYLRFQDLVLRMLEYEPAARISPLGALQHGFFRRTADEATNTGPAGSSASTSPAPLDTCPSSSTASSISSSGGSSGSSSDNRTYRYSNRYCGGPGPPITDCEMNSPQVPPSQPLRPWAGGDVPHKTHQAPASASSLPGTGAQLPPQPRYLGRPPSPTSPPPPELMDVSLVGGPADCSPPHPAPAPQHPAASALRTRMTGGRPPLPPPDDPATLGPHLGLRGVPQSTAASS
T1 sequence (P29376 whole entry): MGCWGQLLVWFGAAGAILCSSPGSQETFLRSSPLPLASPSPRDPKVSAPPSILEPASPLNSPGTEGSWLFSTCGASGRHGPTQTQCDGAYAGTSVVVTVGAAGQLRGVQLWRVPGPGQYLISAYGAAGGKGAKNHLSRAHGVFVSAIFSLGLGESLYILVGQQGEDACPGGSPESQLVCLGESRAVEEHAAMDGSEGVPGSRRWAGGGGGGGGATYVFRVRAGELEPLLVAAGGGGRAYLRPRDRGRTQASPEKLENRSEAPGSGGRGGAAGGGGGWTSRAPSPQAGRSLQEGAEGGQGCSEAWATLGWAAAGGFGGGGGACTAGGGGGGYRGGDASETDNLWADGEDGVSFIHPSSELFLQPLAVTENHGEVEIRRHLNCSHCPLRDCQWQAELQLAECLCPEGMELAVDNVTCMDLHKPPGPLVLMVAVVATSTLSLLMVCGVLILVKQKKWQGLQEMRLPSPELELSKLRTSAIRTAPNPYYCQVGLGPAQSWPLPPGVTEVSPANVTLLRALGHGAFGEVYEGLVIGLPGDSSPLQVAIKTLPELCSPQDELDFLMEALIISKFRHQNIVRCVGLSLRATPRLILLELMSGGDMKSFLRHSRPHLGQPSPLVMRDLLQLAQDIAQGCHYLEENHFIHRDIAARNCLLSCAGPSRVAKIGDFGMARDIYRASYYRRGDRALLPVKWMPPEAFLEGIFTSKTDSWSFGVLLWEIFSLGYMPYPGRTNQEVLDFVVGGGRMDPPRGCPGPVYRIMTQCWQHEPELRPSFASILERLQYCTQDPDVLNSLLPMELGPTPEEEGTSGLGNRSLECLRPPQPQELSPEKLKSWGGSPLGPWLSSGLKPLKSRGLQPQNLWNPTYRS
Chain of TRKC (Q16288 whole entry): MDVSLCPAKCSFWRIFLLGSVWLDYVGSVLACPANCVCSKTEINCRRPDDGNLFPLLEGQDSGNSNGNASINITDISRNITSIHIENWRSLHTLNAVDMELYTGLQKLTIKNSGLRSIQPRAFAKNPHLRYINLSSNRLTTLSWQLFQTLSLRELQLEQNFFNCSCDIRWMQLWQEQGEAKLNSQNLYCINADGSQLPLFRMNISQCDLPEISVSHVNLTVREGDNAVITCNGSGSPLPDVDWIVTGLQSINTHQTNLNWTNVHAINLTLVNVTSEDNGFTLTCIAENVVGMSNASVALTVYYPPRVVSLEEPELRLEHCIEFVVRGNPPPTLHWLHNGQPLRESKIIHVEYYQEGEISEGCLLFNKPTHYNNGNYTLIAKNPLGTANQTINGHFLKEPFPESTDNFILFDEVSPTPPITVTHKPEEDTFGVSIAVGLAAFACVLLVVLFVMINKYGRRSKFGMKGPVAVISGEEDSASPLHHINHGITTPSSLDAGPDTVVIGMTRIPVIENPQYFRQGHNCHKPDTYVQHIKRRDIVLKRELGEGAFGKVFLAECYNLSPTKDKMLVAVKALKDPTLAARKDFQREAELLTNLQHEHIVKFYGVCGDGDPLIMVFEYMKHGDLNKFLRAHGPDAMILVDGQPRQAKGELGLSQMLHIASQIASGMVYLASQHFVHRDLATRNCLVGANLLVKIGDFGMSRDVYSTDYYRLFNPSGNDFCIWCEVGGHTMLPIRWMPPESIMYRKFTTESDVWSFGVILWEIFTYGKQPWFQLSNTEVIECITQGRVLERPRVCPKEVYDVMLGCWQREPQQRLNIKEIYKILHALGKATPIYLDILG
Chain of LYN (P07948 whole entry): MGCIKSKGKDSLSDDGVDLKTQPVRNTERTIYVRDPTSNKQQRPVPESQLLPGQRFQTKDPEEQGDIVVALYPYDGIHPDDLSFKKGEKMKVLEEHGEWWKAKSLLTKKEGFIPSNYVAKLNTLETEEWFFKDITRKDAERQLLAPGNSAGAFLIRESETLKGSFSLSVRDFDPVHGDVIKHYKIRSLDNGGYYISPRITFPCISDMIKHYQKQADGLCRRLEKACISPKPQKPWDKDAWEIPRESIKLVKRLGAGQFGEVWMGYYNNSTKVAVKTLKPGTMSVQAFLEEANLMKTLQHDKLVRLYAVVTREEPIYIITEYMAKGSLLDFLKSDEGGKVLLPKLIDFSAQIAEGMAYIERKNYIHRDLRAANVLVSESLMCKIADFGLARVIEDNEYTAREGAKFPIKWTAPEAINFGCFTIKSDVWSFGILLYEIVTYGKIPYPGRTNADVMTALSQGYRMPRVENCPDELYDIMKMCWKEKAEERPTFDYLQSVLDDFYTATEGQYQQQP
Chain of VRK2 (Q86Y07 whole entry): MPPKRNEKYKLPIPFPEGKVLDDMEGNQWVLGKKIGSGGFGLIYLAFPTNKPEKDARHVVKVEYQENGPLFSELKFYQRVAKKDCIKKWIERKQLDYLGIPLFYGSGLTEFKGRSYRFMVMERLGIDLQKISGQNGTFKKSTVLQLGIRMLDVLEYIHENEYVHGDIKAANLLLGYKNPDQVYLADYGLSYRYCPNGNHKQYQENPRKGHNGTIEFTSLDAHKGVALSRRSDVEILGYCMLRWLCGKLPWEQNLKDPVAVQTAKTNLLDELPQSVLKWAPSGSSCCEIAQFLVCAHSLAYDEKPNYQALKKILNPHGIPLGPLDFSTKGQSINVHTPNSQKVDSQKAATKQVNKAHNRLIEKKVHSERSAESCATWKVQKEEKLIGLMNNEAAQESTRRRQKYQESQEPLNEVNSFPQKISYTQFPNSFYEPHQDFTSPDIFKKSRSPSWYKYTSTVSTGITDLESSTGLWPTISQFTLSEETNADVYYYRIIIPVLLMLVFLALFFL
Chain of MAP3K15 (Q6ZN16 whole entry): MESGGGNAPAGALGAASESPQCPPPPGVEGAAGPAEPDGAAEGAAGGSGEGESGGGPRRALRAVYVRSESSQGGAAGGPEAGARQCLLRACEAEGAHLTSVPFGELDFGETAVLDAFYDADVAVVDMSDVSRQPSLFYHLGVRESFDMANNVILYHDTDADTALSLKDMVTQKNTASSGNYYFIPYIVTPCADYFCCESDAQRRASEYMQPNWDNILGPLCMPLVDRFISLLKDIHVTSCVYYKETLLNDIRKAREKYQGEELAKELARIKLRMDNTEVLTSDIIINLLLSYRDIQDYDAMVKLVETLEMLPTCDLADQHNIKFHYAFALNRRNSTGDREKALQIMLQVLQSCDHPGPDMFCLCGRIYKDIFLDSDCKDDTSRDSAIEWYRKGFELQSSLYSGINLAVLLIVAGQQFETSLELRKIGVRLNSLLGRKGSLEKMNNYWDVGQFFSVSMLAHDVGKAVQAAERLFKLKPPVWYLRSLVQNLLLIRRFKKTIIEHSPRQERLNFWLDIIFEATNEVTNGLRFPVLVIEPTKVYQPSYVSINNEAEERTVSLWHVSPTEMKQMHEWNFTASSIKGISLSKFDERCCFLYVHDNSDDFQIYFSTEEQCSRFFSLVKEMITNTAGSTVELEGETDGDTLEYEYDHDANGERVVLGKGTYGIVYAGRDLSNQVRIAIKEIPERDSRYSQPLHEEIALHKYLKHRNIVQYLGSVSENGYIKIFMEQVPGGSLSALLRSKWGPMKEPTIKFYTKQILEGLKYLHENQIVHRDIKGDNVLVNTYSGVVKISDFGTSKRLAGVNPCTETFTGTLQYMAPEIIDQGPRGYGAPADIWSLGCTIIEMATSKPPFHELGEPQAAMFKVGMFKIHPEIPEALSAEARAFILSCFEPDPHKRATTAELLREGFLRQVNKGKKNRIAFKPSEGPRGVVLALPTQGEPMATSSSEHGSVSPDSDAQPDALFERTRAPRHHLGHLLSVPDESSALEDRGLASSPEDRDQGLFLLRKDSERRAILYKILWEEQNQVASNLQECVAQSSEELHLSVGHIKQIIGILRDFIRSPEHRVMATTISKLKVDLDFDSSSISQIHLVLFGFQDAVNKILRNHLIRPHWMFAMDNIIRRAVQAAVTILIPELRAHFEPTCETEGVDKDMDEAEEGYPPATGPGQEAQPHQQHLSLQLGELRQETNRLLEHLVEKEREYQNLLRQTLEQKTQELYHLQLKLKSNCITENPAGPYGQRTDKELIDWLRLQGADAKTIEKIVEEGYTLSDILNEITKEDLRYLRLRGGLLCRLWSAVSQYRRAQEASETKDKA

CNc1ncc2cc(-c3ccc(-c4cccc(C)n4)cc3Cl)c(=O)n(C[C@H]3OC[C@H](N)CO3)c2n1 [compound 6, G-5555]
Percent Control [1]: 100% | Percent Control [2]: 100% | Percent Control [3]: 100% | Percent Control [4]: 100% | Percent Control [5]: 15% | Percent Control [6]: 89% | Percent Control [7]: 100% | Percent Control [8]: 84% | Percent Control [9]: 82% | Percent Control [10]: 100% | Percent Control [11]: 100% | Percent Control [12]: 100% | Percent Control [13]: 100% | Percent Control [14]: 72% | Percent Control [15]: 47% | Percent Control [16]: 99% | Percent Control [17]: 64% | Percent Control [18]: 95% | Percent Control [19]: 94% | Percent Control [20]: 100% | Percent Control [21]: 51% | Percent Control [22]: 100% | remaining activity at 0.1 µM [23]: 100% | remaining activity at 0.1 µM [24]: 28% | remaining activity at 0.1 µM [25]: 61% | Percent Control [26]: 100% | remaining activity at 1 µM [27]: 4.1% | remaining activity at 1 µM [28]: 49% | Percent Control [29]: 94% | Percent Control [30]: 83%
